Several values for one entry are separate records, joined by “and”; a condition that tells them apart may be missing. Identical values can stand only once. Inconclusive results and toxic doses are left out.
Test system: L1210 leukemia ip in BDF1 mice, survival T/C
Test: NCI In Vivo Anticancer Drug Screen. Data for tumor model L1210 Leukemia (intraperitoneal) in B6D2F1 (BDF1) mice
Details: endpoint: mean survival time, higher = longer survival
Method in brief: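 Survival endpoint. Drug-treated group vs vehicle group, expressed as T divided by C. Tumor passaged by transplantation.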

[1] = dose: 100.0 mg/kg/injection, schedule: Q01DX009 (ip), vehicle: saline
[2] = dose: 100.0 mg/kg/injection, schedule: Q04DX003 (ip), vehicle: saline
[3] = dose: 200.0 mg/kg/injection, schedule: Q01DX009 (ip), vehicle: saline
[4] = dose: 200.0 mg/kg/injection, schedule: Q04DX003 (ip), vehicle: saline
[5] = dose: 400.0 mg/kg/injection, schedule: Q01DX009 (ip), vehicle: saline
[6] = dose: 400.0 mg/kg/injection, schedule: Q04DX003 (ip), vehicle: saline
[7] = dose: 200.0 mg/kg/injection, schedule: Q04DX003 (ip), vehicle: Klucel (hydroxypropylcellulose) (HPC)
[8] = dose: 400.0 mg/kg/injection, schedule: Q04DX003 (ip), vehicle: Klucel (hydroxypropylcellulose) (HPC)
[9] = dose: 100.0 mg/kg/injection, schedule: Q01DX009 (ip), vehicle: Klucel (hydroxypropylcellulose) (HPC)
[10] = dose: 200.0 mg/kg/injection, schedule: Q01DX009 (ip), vehicle: Klucel (hydroxypropylcellulose) (HPC)
[11] = dose: 400.0 mg/kg/injection, schedule: Q01DX009 (ip), vehicle: Klucel (hydroxypropylcellulose) (HPC)
[12] = dose: 100.0 mg/kg/injection, schedule: Q04DX003 (ip), vehicle: Klucel (hydroxypropylcellulose) (HPC)

`COc1ccccc1C(=O)N/N=C\c1ccc(Cl)cc1Cl` was tested, and the T/C [1] was 111 % of control, the T/C [2] was 122 % of control and the T/C [3] was 97 % of control. The T/C [4] was 103 % of control, the T/C [5] was 94 % of control and the T/C [6] was 100 % of control.
For `Cc1ccc(S(=O)(=O)N(C)c2ccc(C#N)cc2F)cc1`, the T/C [2] was 102 % of control, the T/C [4] was 98 % of control and the T/C [6] was 102 % of control.
With `c1ccc2c(c1)cc1ncc3cccc4ccc2c1c43` the T/C (dose: 100.0 mg/kg/injection, schedule: Q04DX003 (ip), vehicle: saline with Tween-80) was 88 % of control, the T/C (dose: 200.0 mg/kg/injection, schedule: Q04DX003 (ip), vehicle: saline with Tween-80) was 102 % of control and the T/C (dose: 400.0 mg/kg/injection, schedule: Q04DX003 (ip), vehicle: saline with Tween-80) was 88 % of control.
For `CN(C)C1c2cccn2-c2ccccc2S(=O)(=O)C1c1ccccc1[N+](=O)[O-]` (configuration not stated), the T/C [7] was 98 % of control and the T/C [8] was 96 % of control.
`S=C(NP(=S)(NC(=S)OCCN1CC1)NC(=S)OCCN1CC1)OCCN1CC1` was tested, and the T/C (dose: 100.0 mg/kg/injection, schedule: Q01DX001 (ip), vehicle: carboxymethylcellulose (CMC)) was 93 % of control and the T/C (dose: 200.0 mg/kg/injection, schedule: Q01DX001 (ip), vehicle: carboxymethylcellulose (CMC)) was 96 % of control.
In the case of `NC(=S)N/N=C\c1ncnc2nc[nH]c12`, the T/C (dose: 0.5 mg/kg/injection, schedule: Q03HX024 (ip), vehicle: saline) is reported as 111 % of control, the T/C (dose: 1.0 mg/kg/injection, schedule: Q03HX024 (ip), vehicle: saline) is reported as 121 % of control and the T/C (dose: 5.0 mg/kg/injection, schedule: Q01DX001 (ip), vehicle: saline) is reported as 114 % of control. The T/C (dose: 8.0 mg/kg/injection, schedule: Q03HX024 (ip), vehicle: saline) was 150 % of control, the T/C (dose: 10.0 mg/kg/injection, schedule: Q01DX001 (ip), vehicle: saline) was 118 % of control and the T/C (dose: 20.0 mg/kg/injection, schedule: Q01DX001 (ip), vehicle: saline) was 114 % of control.
`N#CCN(CC#N)CC#N` was tested, and the T/C (dose: 3.13 mg/kg/injection, schedule: Q04DX003 (ip), vehicle: saline with Tween-80) was 102 % of control and the T/C (dose: 6.25 mg/kg/injection, schedule: Q04DX003 (ip), vehicle: saline with Tween-80) was 111 % of control.
In the case of `O=S(=O)(F)c1cc(Cl)c(O)c(S(=O)(=O)F)c1`, the T/C [9] is reported as 101 % of control.
In the case of `CC(=O)NCC1CCC(CNC(C)=O)CC1` (configuration not stated), the T/C [1] is reported as 103 % of control, the T/C [2] is reported as 100 % of control and the T/C [3] is reported as 107 % of control. For the same molecule, the T/C [4] was 105 % of control, the T/C [5] was 95 % of control and the T/C [6] was 100 % of control.
In the case of `O=[N+]([O-])C(=C\c1ccccc1)/C(=C(/Br)[N+](=O)[O-])c1ccccc1`, the T/C (dose: 75.0 mg/kg/injection, schedule: Q01DX001 (ip), vehicle: saline) is reported as 95 % of control and the T/C (dose: 150.0 mg/kg/injection, schedule: Q01DX001 (ip), vehicle: saline) is reported as 92 % of control.
With `Nc1ncnc(N)c1NC(=O)c1cc(OCc2ccccc2)cc(OCc2ccccc2)c1` the T/C (dose: 100.0 mg/kg/injection, schedule: Q04DX003 (ip), vehicle: DMSO) was 94 % of control, the T/C (dose: 200.0 mg/kg/injection, schedule: Q04DX003 (ip), vehicle: DMSO) was 102 % of control and the T/C (dose: 400.0 mg/kg/injection, schedule: Q04DX003 (ip), vehicle: DMSO) was 86 % of control.
For `N#CC12CCCCC(=O)N1C=Cc1ccccc12` (configuration not stated), the T/C (dose: 100.0 mg/kg/injection, schedule: Q01DX001 (ip), vehicle: saline) was 96 % of control, the T/C (dose: 200.0 mg/kg/injection, schedule: Q01DX001 (ip), vehicle: saline) was 96 % of control and the T/C (dose: 400.0 mg/kg/injection, schedule: Q01DX001 (ip), vehicle: saline) was 93 % of control.
`O=C(O)COc1ccc(/C=C/c2ccnc3ccccc23)cc1` was tested, and the T/C [9] was 94 % of control, the T/C [10] was 99 % of control and the T/C [11] was 86 % of control.
In the case of `CCCC[S][Pb]([c]1ccccc1)([c]1ccccc1)[c]1ccccc1`, the T/C (dose: 100.0 mg/kg/injection, schedule: Q01DX001 (ip), vehicle: Klucel (hydroxypropylcellulose) (HPC)) is reported as 101 % of control and the T/C (dose: 200.0 mg/kg/injection, schedule: Q01DX001 (ip), vehicle: Klucel (hydroxypropylcellulose) (HPC)) is reported as 106 % of control.
`CCCCCCCCCCCCCCC1CC(=O)OC1=O` (configuration not stated) was tested, and the T/C [9] was 92 % of control, the T/C [12] was 86 % of control and the T/C [10] was 86 % of control. For the same molecule, the T/C [7] was 88 % of control and the T/C [8] was 93 % of control.
For `CC(=O)NCCc1ccc(NCc2cnc3nc(N)nc(N)c3n2)cc1`, the T/C (dose: 20.0 mg/kg/injection, schedule: Q01DX009 (ip), vehicle: Klucel (hydroxypropylcellulose) (HPC)) was 98 % of control, the T/C (dose: 40.0 mg/kg/injection, schedule: Q01DX009 (ip), vehicle: Klucel (hydroxypropylcellulose) (HPC)) was 96 % of control and the T/C (dose: 80.0 mg/kg/injection, schedule: Q01DX009 (ip), vehicle: Klucel (hydroxypropylcellulose) (HPC)) was 98 % of control.
In the case of `CCCCCCCCCCCCCCCCCCNC(=S)SCCCC`, the T/C (dose: 400.0 mg/kg/injection, schedule: Q04DX002 (ip), vehicle: saline + alcohol) is reported as 100 % of control.
For `COc1ccc2c(c1)c(=NCCCCN=c1c3cc(OC)ccc3n(O)c3cc(Cl)ccc13)c1cc(Cl)ccc1n2O`, the T/C (dose: 12.5 mg/kg/injection, schedule: Q01DX009 (ip), vehicle: other) was 93 % of control, the T/C (dose: 25.0 mg/kg/injection, schedule: Q01DX009 (ip), vehicle: other) was 93 % of control and the T/C (dose: 50.0 mg/kg/injection, schedule: Q01DX009 (ip), vehicle: other) was 93 % of control and 101 % of control. The T/C (dose: 100.0 mg/kg/injection, schedule: Q01DX009 (ip), vehicle: other) was 101 % of control and the T/C (dose: 200.0 mg/kg/injection, schedule: Q01DX009 (ip), vehicle: other) was 101 % of control.
In the case of `Cc1ccc(S(=O)(=O)O)cc1.[Ag]`, the T/C (dose: 25.0 mg/kg/injection, schedule: Q04DX002 (ip), vehicle: saline + alcohol) is reported as 92 % of control and the T/C (dose: 50.0 mg/kg/injection, schedule: Q04DX002 (ip), vehicle: saline + alcohol) is reported as 96 % of control.
For `CC1C(c2ccccc2)N1P(I)(c1ccccc1)(c1ccccc1)c1ccccc1` (configuration not stated), the T/C (dose: 15.0 mg/kg/injection, schedule: Q01DX001 (ip), vehicle: carboxymethylcellulose (CMC)) was 116 % of control.
With `CCOC(=O)/C=C(/C)Nc1ccc(SC)cc1` the T/C (dose: 100.0 mg/kg/injection, schedule: Q01DX009 (ip), vehicle: saline with Tween-80) was 100 % of control, the T/C (dose: 200.0 mg/kg/injection, schedule: Q01DX009 (ip), vehicle: saline with Tween-80) was 96 % of control and the T/C (dose: 400.0 mg/kg/injection, schedule: Q01DX009 (ip), vehicle: saline with Tween-80) was 100 % of control.
For `NC(CSS(=O)(=O)O)=NCC12CC3CC(CC(C3)C1)C2`, the T/C (dose: 12.5 mg/kg/injection, schedule: Q04DX002 (ip), vehicle: Klucel (hydroxypropylcellulose) (HPC)) was 104 % of control and the T/C (dose: 25.0 mg/kg/injection, schedule: Q04DX002 (ip), vehicle: Klucel (hydroxypropylcellulose) (HPC)) was 95 % of control.
`CSc1ccc(C(=NO)c2ccc(SC)cc2)cc1` was tested, and the T/C [9] was 95 % of control, the T/C [12] was 101 % of control and the T/C [10] was 103 % of control. For the same molecule, the T/C [7] was 94 % of control, the T/C [11] was 95 % of control and the T/C [8] was 103 % of control.
With `COc1cc([N+](=O)[O-])c(C(OC(C)=O)OC(C)=O)cc1Br` the T/C (dose: 100.0 mg/kg/injection, schedule: Q01DX001 (ip), vehicle: acetone) was 98 % of control, the T/C [1] was 94 % of control and the T/C [2] was 105 % of control. For the same molecule, the T/C (dose: 200.0 mg/kg/injection, schedule: Q01DX001 (ip), vehicle: acetone) was 88 % of control, the T/C [3] was 86 % of control and the T/C [4] was 109 % of control. For the same molecule, the T/C (dose: 400.0 mg/kg/injection, schedule: Q01DX001 (ip), vehicle: acetone) was 97 % of control, the T/C [5] was 88 % of control and the T/C [6] was 105 % of control.
In the case of `CCNCCNCC(Cc1ccccc1)c1ccccc1` (configuration not stated), the T/C (dose: 25.0 mg/kg/injection, schedule: Q04DX002 (ip), vehicle: saline) is reported as 86 % of control, the T/C (dose: 50.0 mg/kg/injection, schedule: Q04DX002 (ip), vehicle: saline) is reported as 105 % of control and the T/C (dose: 100.0 mg/kg/injection, schedule: Q04DX002 (ip), vehicle: saline) is reported as 93 % of control and 92 % of control.
`NC(=O)NC1C(c2ccccc2)=NOC1C(N)=O` (configuration not stated) was tested, and the T/C (dose: 25.0 mg/kg/injection, schedule: Q04DX003 (ip), vehicle: Klucel (hydroxypropylcellulose) (HPC)) was 94 % of control, the T/C (dose: 50.0 mg/kg/injection, schedule: Q01DX009 (ip), vehicle: Klucel (hydroxypropylcellulose) (HPC)) was 88 % of control and the T/C (dose: 50.0 mg/kg/injection, schedule: Q04DX003 (ip), vehicle: Klucel (hydroxypropylcellulose) (HPC)) was 105 % of control. For the same molecule, the T/C [9] was 93 % of control and the T/C [12] was 96 % of control.
With `COc1cc2c(cc1OC(C)=O)C(=O)CCCC2` the T/C [12] was 91 % of control, the T/C [7] was 97 % of control and the T/C [8] was 96 % of control.

Reference: PubChem BioAssay AID248 (DTP/NCI, 2004)
